# Assay results as given in PubChem BioAssay AID194 (DTP/NCI, 2004).
# “And” between values parts separate entries of the source, which are not always exact repeats. Identical values can stand only once. Records with an inconclusive call do not appear.
# Test system: BDF1 mice, B16 melanoma s.c., survival/tumor T/C
# Assay: NCI In Vivo Anticancer Drug Screen. Data for tumor model B16 Melanoma (subcutaneous) in B6D2F1 (BDF1) mice
# Description: The antitumor activity of compounds was measured in mice bearing transplantable tumors. Survival or tumor size were measured and the results are expressed as the measurement made in the treated group (T) divided by the measurement made in the vehicle treated control group (C). The tumor model used in this assay is B16 Melanoma (subcutaneous) in B6D2F1 (BDF1) mice
smiles,measurement,setting,value
CCCCNCCCNCCCNC(=O)c1csc(-c2csc(CCNC(=O)C(NC(=O)C(C)C(O)C(C)NC(=O)C(NC(=O)c3nc(C(CC(N)=O)NCC(N)C(N)=O)nc(N)c3C)C(OC3OC(CO)C(O)C(O)C3OC3OC(CO)C(O)C(OC(N)=O)C3O)c3cnc[nH]3)C(C)O)n2)n1 (stereo not drawn),T/C,"endpoint: median survival time, dose: 0.31 mg/kg/injection, schedule: Q01DX009 (ip), vehicle: water, higher = longer survival",86 % of control
same,T/C,"endpoint: median survival time, dose: 0.62 mg/kg/injection, schedule: Q01DX009 (ip), vehicle: water, higher = longer survival",154 % of control
same,T/C,"endpoint: median survival time, dose: 1.25 mg/kg/injection, schedule: Q01DX009 (ip), vehicle: water, higher = longer survival",120 % of control
same,T/C,"endpoint: median survival time, dose: 2.5 mg/kg/injection, schedule: Q01DX009 (ip), vehicle: water, higher = longer survival",122 % of control
same,T/C,"endpoint: median survival time, dose: 5.0 mg/kg/injection, schedule: Q01DX009 (ip), vehicle: water, higher = longer survival",158 % of control
CN(C)c1nc(N(C)C)nc(N(C)C)n1,T/C,"endpoint: median survival time, dose: 20.0 mg/kg/injection, schedule: Q01DX009 (ip), vehicle: Klucel (hydroxypropylcellulose) (HPC), higher = longer survival",115 % of control
same,T/C,"endpoint: median survival time, dose: 40.0 mg/kg/injection, schedule: Q01DX009 (ip), vehicle: Klucel (hydroxypropylcellulose) (HPC), higher = longer survival",118 % of control
same,T/C,"endpoint: median survival time, dose: 80.0 mg/kg/injection, schedule: Q01DX009 (ip), vehicle: Klucel (hydroxypropylcellulose) (HPC), higher = longer survival",111 % of control
same,T/C,"endpoint: median survival time, dose: 160.0 mg/kg/injection, schedule: Q01DX009 (ip), vehicle: Klucel (hydroxypropylcellulose) (HPC), higher = longer survival",115 % of control
COc1cc([C@@H]2c3cc4c(cc3[C@@H](OC3OC5COC(C)OC5C(O)C3O)[C@H]3COC(=O)[C@H]23)OCO4)cc(OC)c1O (stereo partly drawn),T/C,"endpoint: median survival time, dose: 2.0 mg/kg/injection, schedule: Q01DX009 (ip), vehicle: saline, higher = longer survival",169 % of control
same,T/C,"endpoint: median survival time, dose: 3.0 mg/kg/injection, schedule: Q01DX009 (ip), vehicle: saline, higher = longer survival",117 % of control
same,T/C,"endpoint: median survival time, dose: 34.0 mg/kg/injection, schedule: Q01DX001 (ip), vehicle: saline, higher = longer survival",117 % of control
same,T/C,"endpoint: median survival time, dose: 40.0 mg/kg/injection, schedule: Q04DX003 (ip), vehicle: saline, higher = longer survival",156 % of control
same,T/C,"endpoint: median survival time, dose: 50.0 mg/kg/injection, schedule: Q01DX001 (ip), vehicle: saline, higher = longer survival",117 % of control
COC(=O)C[C@](O)(CCC(C)(C)O)C(=O)O[C@@H]1C(OC)=C[C@]23CCCN2CCc2cc4c(cc2[C@H]13)OCO4,T/C,"endpoint: median survival time, dose: 0.7 mg/kg/injection, schedule: Q01DX009 (ip), vehicle: saline, higher = longer survival",101 % of control
same,T/C,"endpoint: median survival time, dose: 1.0 mg/kg/injection, schedule: Q01DX009 (ip), vehicle: saline, higher = longer survival",87 % of control
same,T/C,"endpoint: median survival time, dose: 1.5 mg/kg/injection, schedule: Q01DX009 (ip), vehicle: saline, higher = longer survival",91 % of control
same,T/C,"endpoint: median survival time, dose: 2.3 mg/kg/injection, schedule: Q01DX009 (ip), vehicle: saline, higher = longer survival",105 % of control
C[C@]12C=CC(=O)C=C1CC[C@@H]1[C@@H]2C(=O)C[C@@]2(C)[C@H]1CC[C@]2(O)C(=O)CO,T/C,"endpoint: median survival time, dose: 50.0 mg/kg/injection, schedule: Q01DX009 (ip), vehicle: Klucel (hydroxypropylcellulose) (HPC), higher = longer survival",95 % of control and 123 % of control
same,T/C,"endpoint: median survival time, dose: 50.0 mg/kg/injection, schedule: Q01DX009 (ip), vehicle: saline with Tween-80, higher = longer survival",124 % of control
same,T/C,"endpoint: median survival time, dose: 50.0 mg/kg/injection, schedule: Q01DX009 (ip), vehicle: saline, higher = longer survival",116 % of control
same,T/C,"endpoint: median survival time, dose: 100.0 mg/kg/injection, schedule: Q01DX009 (ip), vehicle: saline with Tween-80, higher = longer survival",151 % of control
same,T/C,"endpoint: median survival time, dose: 100.0 mg/kg/injection, schedule: Q01DX009 (ip), vehicle: saline, higher = longer survival",100 % of control
same,T/C,"endpoint: median survival time, dose: 200.0 mg/kg/injection, schedule: Q01DX009 (ip), vehicle: saline with Tween-80, higher = longer survival",157 % of control and 168 % of control
same,T/C,"endpoint: median survival time, dose: 400.0 mg/kg/injection, schedule: Q01DX009 (ip), vehicle: saline with Tween-80, higher = longer survival",159 % of control
same,T/C,"endpoint: median tumor weight (est.), dose: 50.0 mg/kg/injection, schedule: Q01DX009 (ip), vehicle: Klucel (hydroxypropylcellulose) (HPC), higher = larger tumour",12 % of control and 30 % of control
same,T/C,"endpoint: median tumor weight (est.), dose: 50.0 mg/kg/injection, schedule: Q01DX009 (ip), vehicle: saline with Tween-80, higher = larger tumour",26 % of control
same,T/C,"endpoint: median tumor weight (est.), dose: 100.0 mg/kg/injection, schedule: Q01DX009 (ip), vehicle: Klucel (hydroxypropylcellulose) (HPC), higher = larger tumour",37 % of control
same,T/C,"endpoint: median tumor weight (est.), dose: 100.0 mg/kg/injection, schedule: Q01DX009 (ip), vehicle: saline with Tween-80, higher = larger tumour",41 % of control
same,T/C,"endpoint: median tumor weight (est.), dose: 200.0 mg/kg/injection, schedule: Q01DX009 (ip), vehicle: Klucel (hydroxypropylcellulose) (HPC), higher = larger tumour",22 % of control
same,T/C,"endpoint: median tumor weight (est.), dose: 200.0 mg/kg/injection, schedule: Q01DX009 (ip), vehicle: saline with Tween-80, higher = larger tumour",12 % of control
CN(N=O)C(N)=O,T/C,"endpoint: median survival time, dose: 3.12 mg/kg/injection, schedule: Q01DX009 (ip), vehicle: saline, higher = longer survival",97 % of control
same,T/C,"endpoint: median survival time, dose: 6.25 mg/kg/injection, schedule: Q01DX009 (ip), vehicle: saline, higher = longer survival",105 % of control
same,T/C,"endpoint: median survival time, dose: 12.5 mg/kg/injection, schedule: Q01DX009 (ip), vehicle: saline, higher = longer survival",109 % of control
CSCS(=O)C[C@H](CO)NC(=O)/C=C/c1c(C)[nH]c(=O)[nH]c1=O (stereo partly drawn),T/C,"endpoint: median survival time, dose: 0.08 mg/kg/injection, schedule: Q01DX009 (ip), vehicle: water, higher = longer survival",90 % of control
same,T/C,"endpoint: median survival time, dose: 0.15 mg/kg/injection, schedule: Q01DX009 (ip), vehicle: water, higher = longer survival",112 % of control
same,T/C,"endpoint: median survival time, dose: 0.3 mg/kg/injection, schedule: Q01DX009 (ip), vehicle: water, higher = longer survival",96 % of control
same,T/C,"endpoint: median survival time, dose: 0.6 mg/kg/injection, schedule: Q01DX009 (ip), vehicle: water, higher = longer survival",100 % of control
